# Reference: US20050239656A1, “Pyridine compounds or salts thereof and herbicides containing the same” (priority 2002, published 2005)
# System: velvetleaf
# Test: Test Example 2: soil surface treatment, upland pot test
# Type: in vivo, Abutilon theophrasti MEDIC.
# Settings: active ingredient 1000 g/ha, observed 20th to 28th day
# In short: (§1)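 Visual growth-control ratings, from 0 (like the non-treated plot) to 100 (total kill), were made between days 20 and 28 after a soil-surface spray. The compound, formulated as wettable powder or emulsifiable concentrate and diluted at 1,500 L/ha, went on one day post-sowing in upland-soil pots of 1/170,000 ha.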
row,SMILES,Growth controlling degree (%) Velvetleaf [%]
1,CCC(=O)N(C)C(c1cnccc1C(F)(F)F)c1cccc2ccccc12 (stereo not shown) [I-43],0

# System: soybean
# Test: as above
# Type: in vivo, Glycine max Merr.
# Settings: active ingredient 1000 g/ha, observed 20th to 28th day
# In short: as §1
row,SMILES,Growth controlling degree (%) Soyabean [%]
1,CCC(=O)N(C)C(c1cnccc1C(F)(F)F)c1cccc2ccccc12 (stereo not shown) [I-43],10

# System: rice
# Test: as above
# Type: in vivo, Oryza sativa L.
# Settings: active ingredient 1000 g/ha, observed 20th to 28th day
# In short: as §1
row,SMILES,Growth controlling degree (%) Rice [%]
1,CCC(=O)N(C)C(c1cnccc1C(F)(F)F)c1cccc2ccccc12 (stereo not shown) [I-43],10

# System: green foxtail
# Test: as above
# Type: in vivo, Setaria viridis L.
# Settings: active ingredient 1000 g/ha, observed 20th to 28th day
# In short: as §1
row,SMILES,Growth controlling degree (%) Green foxtail [%]
1,CCC(=O)N(C)C(c1cnccc1C(F)(F)F)c1cccc2ccccc12 (stereo not shown) [I-43],98

# System: wheat
# Test: as above
# Type: in vivo, Triticum spp.
# Settings: active ingredient 1000 g/ha, observed 20th to 28th day
# In short: as §1
row,SMILES,Growth controlling degree (%) wheat [%]
1,CCC(=O)N(C)C(c1cnccc1C(F)(F)F)c1cccc2ccccc12 (stereo not shown) [I-43],40

# System: velvetleaf
# Test: Test Example 1: foliage treatment, upland pot test
# Type: in vivo, Abutilon theophrasti MEDIC.
# Settings: active ingredient 1000 g/ha, observed 18th to 23rd day, 0 = non-treated, 100 = complete kill
row,SMILES,Growth controlling degree (%) Velvetleaf [%]
1,CCC(=O)N(C)C(c1cnccc1C(F)(F)F)c1cccc2ccccc12 (stereo not shown) [I-43],95

# System: corn
# Test: Test Example 1: foliage treatment, upland pot test
# Type: in vivo, Zea mays L.
# Settings: crop, active ingredient 1000 g/ha, observed 18th to 23rd day, 0 = non-treated, 100 = complete kill
# In short: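 Corn seeds were sown in upland field soil held in a 1/170,000 ha pot and grown to the 2.1 to 3.2 leaf stage. A wettable powder or emulsifiable concentrate of the test compound was diluted with water at 500 L/ha, given 0.1% (v/v) agricultural spreader, and sprayed onto the foliage with a small sprayer. Growth controlling degree (%) was scored visually 18th to 23rd days later, from 0 (non-treated) to 100 (complete kill).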
row,SMILES,Growth controlling degree (%) Corn [%]
1,CCC(=O)N(C)C(c1cnccc1C(F)(F)F)c1cccc2ccccc12 (stereo not shown) [I-43],10

# System: redroot pigweed
# Test: Test Example 2: soil surface treatment, upland pot test
# Type: in vivo, Amaranthus retroflexus L.
# Settings: active ingredient 1000 g/ha, observed 20th to 28th day
# In short: as §1
row,SMILES,Growth controlling degree (%) Redroot pigweed [%]
1,CCC(=O)N(C)C(c1cnccc1C(F)(F)F)c1cccc2ccccc12 (stereo not shown) [I-43],60

# System: tall morningglory
# Test: Test Example 1: foliage treatment, upland pot test
# Type: in vivo, Ipomoea purpurea L.
# Settings: active ingredient 1000 g/ha, observed 18th to 23rd day, 0 = non-treated, 100 = complete kill
# Source text: Upland field soil was put into a 1/170,000 ha pot, and seed of various plants were sown. Then, when the plants reached predetermined leaf stages ((1) barnyardgrass: 1.3 to 2.8 leaf stages, (2) crabgrass: 1.0 to 2.8 leaf stages, (3) green foxtail: 1.3 to 2.6 leaf stages, (4) redroot pigweed: 0.1 to 1.2 leaf stages, (5) prickly sida: 0.1 to 1.2 leaf stages, (6) velvetleaf: 0.1 to 1.2 leaf stages, (7) tall morningglory: 0.1 to 1.5 leaf stages, (8) rice: 1.2 to 2.6 leaf stages, (9) wheat: 1.3 to 2.4 leaf stages, (10) corn, 2.1 to 3.2 leaf stages, (11) soybean: 0.1 to 0.4 leaf stage), a wettable powder or emulsifiable concentrate having the compound of the present invention formulated in accordance with a usual formulation method, was weighed so that the active ingredient would be a predetermined amount, and diluted with water in an amount of 500 L/ha. To the diluted solution, 0.1% (v/v) of agricultural spreader was added. The herbicide thus adjusted was applied by a small size sprayer for foliage treatment. On the 18th to 23rd days after the application of the herbicide, the growth of the respective plants was visually observed, and the herbicidal effects were evaluated by the growth controlling degrees (%) ranging from 0 (equivalent to the non-treated plot) to 100 (complete kill), whereby the results shown in Table 3, were obtained.
row,SMILES,Growth controlling degree (%) Tall morningglory [%]
1,CCC(=O)N(C)C(c1cnccc1C(F)(F)F)c1cccc2ccccc12 (stereo not shown) [I-43],90

# System: japanese ribbon wapato
# Test: Test Example 3: paddy pot test, application under submerged conditions
# Type: in vivo, Sagittaria pygniaea
# Settings: active ingredient 500 g/ha; submerged application at primary leaf stage; visually observed 14 days after application; 0 = non-treated, 100 = complete kill
# In short: (§2)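 Seeds were sown in flooded paddy soil (0.5–1 cm water), wapato tubers were planted 1–2 days later, and water was then held at 3–4 cm. Diluted wettable powder or emulsifiable concentrate was pipetted into the water at the 0.5 leaf or primary leaf stage. Growth control was visually scored at 14 days (0–100%).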
row,SMILES,Growth controlling degree (%) Japanese ribbon wapato [%]
1,CCC(=O)N(C)C(c1cnccc1C(F)(F)F)c1cccc2ccccc12 (stereo not shown) [I-43],90

# System: prickly sida
# Test: Test Example 2: soil surface treatment, upland pot test
# Type: in vivo, Sida spinosa L.
# Settings: active ingredient 1000 g/ha, observed 20th to 28th day
# In short: as §1
row,SMILES,Growth controlling degree (%) Prickly sida [%]
1,CCC(=O)N(C)C(c1cnccc1C(F)(F)F)c1cccc2ccccc12 (stereo not shown) [I-43],70

# System: corn
# Test: as above
# Type: in vivo, Zea mays L.
# Settings: active ingredient 1000 g/ha, observed 20th to 28th day
# In short: as §1
row,SMILES,Growth controlling degree (%) Corn [%]
1,CCC(=O)N(C)C(c1cnccc1C(F)(F)F)c1cccc2ccccc12 (stereo not shown) [I-43],30

# System: crabgrass
# Test: as above
# Type: in vivo, Digitaria sanguinalis L.
# Settings: active ingredient 1000 g/ha, observed 20th to 28th day
# In short: as §1
row,SMILES,Growth controlling degree (%) Crabgrass [%]
1,CCC(=O)N(C)C(c1cnccc1C(F)(F)F)c1cccc2ccccc12 (stereo not shown) [I-43],100

# System: soybean
# Test: Test Example 1: foliage treatment, upland pot test
# Type: in vivo, Glycine max Merr.
# Settings: crop, active ingredient 1000 g/ha, observed 18th to 23rd day, 0 = non-treated, 100 = complete kill
# In short: (§3)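 Pots of upland field soil were sown and sprayed post-emergence at soybean 0.1–0.4, wheat 1.3–2.4, rice 1.2–2.6 and barnyardgrass 1.3–2.8 leaf stages. Formulations were diluted in water at 500 L/ha with 0.1% (v/v) spreader. Growth control (0 = untreated, 100 = complete kill) was judged by eye 18–23 days later.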
row,SMILES,Growth controlling degree (%) Soybean [%]
1,CCC(=O)N(C)C(c1cnccc1C(F)(F)F)c1cccc2ccccc12 (stereo not shown) [I-43],10

# System: barnyardgrass
# Test: Test Example 3: paddy pot test, application under submerged conditions
# Type: in vivo, Echinochloa crus-galli L.
# Settings: active ingredient 500 g/ha; submerged application at 0.5 leaf stage; visually observed 14 days after application; 0 = non-treated, 100 = complete kill
# In short: as §2
row,SMILES,Growth controlling degree (%) Barnyardgrass [%]
1,CCC(=O)N(C)C(c1cnccc1C(F)(F)F)c1cccc2ccccc12 (stereo not shown) [I-43],100

# System: barnyardgrass
# Test: Test Example 1: foliage treatment, upland pot test
# Type: in vivo, Echinochloa crus-galli L.
# Settings: active ingredient 1000 g/ha, observed 18th to 23rd day, 0 = non-treated, 100 = complete kill
# In short: as §3
row,SMILES,Growth controlling degree (%) Barnyardgrass [%]
1,CCC(=O)N(C)C(c1cnccc1C(F)(F)F)c1cccc2ccccc12 (stereo not shown) [I-43],70

# System: crabgrass
# Test: Test Example 1: foliage treatment, upland pot test
# Type: in vivo, Digitaria sanguinalis L.
# Settings: active ingredient 1000 g/ha, observed 18th to 23rd day, 0 = non-treated, 100 = complete kill
row,SMILES,Growth controlling degree (%) Crabgrass [%]
1,CCC(=O)N(C)C(c1cnccc1C(F)(F)F)c1cccc2ccccc12 (stereo not shown) [I-43],90

# System: rice
# Test: Test Example 1: foliage treatment, upland pot test
# Type: in vivo, Oryza sativa L.
# Settings: crop, active ingredient 1000 g/ha, observed 18th to 23rd day, 0 = non-treated, 100 = complete kill
# In short: as §3
row,SMILES,Growth controlling degree (%) Rice [%]
1,CCC(=O)N(C)C(c1cnccc1C(F)(F)F)c1cccc2ccccc12 (stereo not shown) [I-43],10

# System: barnyardgrass
# Test: Test Example 2: soil surface treatment, upland pot test
# Type: in vivo, Echinochloa crus-galli L.
# Settings: active ingredient 1000 g/ha, observed 20th to 28th day, 0 = non-treated, 100 = complete kill
# In short: as §1
row,SMILES,Growth controlling degree (%) Barnyardgrass [%]
1,CCC(=O)N(C)C(c1cnccc1C(F)(F)F)c1cccc2ccccc12 (stereo not shown) [I-43],90

# System: prickly sida
# Test: Test Example 1: foliage treatment, upland pot test
# Type: in vivo, Sida spinosa L.
# Settings: active ingredient 1000 g/ha, observed 18th to 23rd day, 0 = non-treated, 100 = complete kill
row,SMILES,Growth controlling degree (%) Prickly sida [%]
1,CCC(=O)N(C)C(c1cnccc1C(F)(F)F)c1cccc2ccccc12 (stereo not shown) [I-43],80

# System: wheat
# Test: Test Example 1: foliage treatment, upland pot test
# Type: in vivo, Triticum spp.
# Settings: crop, active ingredient 1000 g/ha, observed 18th to 23rd day, 0 = non-treated, 100 = complete kill
# In short: as §3
row,SMILES,Growth controlling degree (%) wheat [%]
1,CCC(=O)N(C)C(c1cnccc1C(F)(F)F)c1cccc2ccccc12 (stereo not shown) [I-43],10

# System: japanese bulrush
# Test: Test Example 3: paddy pot test, application under submerged conditions
# Type: in vivo, Scirpus juncoides
# Settings: active ingredient 500 g/ha; submerged application at 0.5 leaf stage; visually observed 14 days after application; 0 = non-treated, 100 = complete kill
# In short: as §2
row,SMILES,Growth controlling degree (%) Japanese bulrush [%]
1,CCC(=O)N(C)C(c1cnccc1C(F)(F)F)c1cccc2ccccc12 (stereo not shown) [I-43],100

# System: rice (var. Nihonbare)
# Test: Test Example 3: paddy pot test, transplanted rice
# Type: in vivo, Oryza sativa L.
# Settings: active ingredient 500 g/ha, applied 4th day after transplantation, visually observed 21st day after application, 0 = non-treated, 100 = complete kill
# In short: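 Rice (2-leaf stage) was transplanted 3 cm deep into puddled, leveled paddy soil under 3–4 cm flooding. On day 4 after transplanting, diluted wettable powder or emulsifiable concentrate was pipetted onto the water at a predetermined active-ingredient dose. Growth control (0 = untreated, 100 = complete kill) was scored visually 21 days later.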
row,SMILES,Growth controlling degree (%) Rice [%]
1,CCC(=O)N(C)C(c1cnccc1C(F)(F)F)c1cccc2ccccc12 (stereo not shown) [I-43],35

# System: redroot pigweed
# Test: Test Example 1: foliage treatment, upland pot test
# Type: in vivo, Amaranthus retroflexus L.
# Settings: active ingredient 1000 g/ha, observed 18th to 23rd day, 0 = non-treated, 100 = complete kill
row,SMILES,Growth controlling degree (%) Redroot pigweed [%]
1,CCC(=O)N(C)C(c1cnccc1C(F)(F)F)c1cccc2ccccc12 (stereo not shown) [I-43],70

# System: green foxtail
# Test: Test Example 1: foliage treatment, upland pot test
# Type: in vivo, Setaria viridis L.
# Settings: active ingredient 1000 g/ha, observed 18th to 23rd day, 0 = non-treated, 100 = complete kill
row,SMILES,Growth controlling degree (%) Green foxtail [%]
1,CCC(=O)N(C)C(c1cnccc1C(F)(F)F)c1cccc2ccccc12 (stereo not shown) [I-43],70
